Data on 22 molecules can be found in patent publication US8367677B2, “Non-glycosylated/non-glycosidic/non-peptidic small molecule PSGL-1 mimetics for the treatment of inflammatory disorders” (Revotar Biopharmaceuticals AG, priority 2004, dated 2013).

Format in all cases: binding
Test [1] addresses T1, human P-Selectin-IgG-chimera (Homo sapiens, UniProt P16109).
T1 sequence (P16109 42-771 limits assumed): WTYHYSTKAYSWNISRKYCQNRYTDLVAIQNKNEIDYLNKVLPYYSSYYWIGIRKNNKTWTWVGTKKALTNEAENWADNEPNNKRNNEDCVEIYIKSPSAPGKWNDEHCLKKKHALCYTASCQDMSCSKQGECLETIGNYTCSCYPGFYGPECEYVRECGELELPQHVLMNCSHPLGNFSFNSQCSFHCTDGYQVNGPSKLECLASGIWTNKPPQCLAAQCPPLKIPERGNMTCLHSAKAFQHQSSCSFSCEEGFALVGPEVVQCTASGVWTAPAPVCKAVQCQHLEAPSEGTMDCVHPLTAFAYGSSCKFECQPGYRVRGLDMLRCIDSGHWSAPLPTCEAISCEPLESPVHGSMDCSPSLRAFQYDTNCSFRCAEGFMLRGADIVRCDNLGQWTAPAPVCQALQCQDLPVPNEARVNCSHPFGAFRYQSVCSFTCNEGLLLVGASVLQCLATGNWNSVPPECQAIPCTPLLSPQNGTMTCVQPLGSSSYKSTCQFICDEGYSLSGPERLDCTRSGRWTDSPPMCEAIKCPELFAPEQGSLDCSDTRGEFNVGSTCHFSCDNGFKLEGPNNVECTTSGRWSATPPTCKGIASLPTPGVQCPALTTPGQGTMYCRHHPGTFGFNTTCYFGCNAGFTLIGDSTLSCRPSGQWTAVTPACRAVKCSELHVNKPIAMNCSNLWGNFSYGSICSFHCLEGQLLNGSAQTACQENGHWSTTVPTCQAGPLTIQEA
Nature of the test: Sialyl Lewis x Tyrosine Sulfate Assay (sLex TSA), P-selectin. The conditions noted are these: for inhibition at 100 µM / P-Selectin [% Inhib.]: compound at 100 μM; for inhibition at 100 µM: read-out: P-Selectin [% Inhib.]. On the procedure:
(§1) Compounds of the present invention are assayed on a molecular level for their ability to inhibit the binding of P-, L-, or E-selectin chimeric molecules to sLe^x and tyrosinesulfate residues linked to a polymeric matrix as a PSGL-1 substitute.
(§2) Microtiter plates are coated overnight in carbonate buffer pH9.6 with goat anti human Fc mAB (10 μg/ml). After washing in assay buffer (25 mM 4-(2-hydroxyethyl)-1-piperazineethanesulfonic acid (HEPES), 150 mM NaCl, 1 mM CaCl2 pH7.4) and blocking (3% bovine serum albumin (BSA) in assay buffer) plates are incubated for 2 h at 37° C. with human P-Selectin-IgG-chimera (0.61 nM respectively 150 ng/mL) or human L-Selectin-IgG-chimera (0.61 nM respectively 89 ng/mL) or human E-Selectin-IgG-chimera (0.61 nM respectively 131 ng/mL). 5 μl of sLe^x-tyrosine sulfate polyacrylamide (1 mg/ml) carrying 15% sLe^x, 10% Tyrosine-sulfate and 5% biotin is complexed with 20 μl Streptavidin-Peroxidase solution (1 mg/ml) and 25 μl assay buffer without CaCl2. For use in the assay, the ligand complex is diluted 1:10000 in assay buffer and further diluted 1:1 with varying amounts of compounds in assay buffer incl. 2% DMSO. This mixture is added to the wells precoated with E- or P-selectin. After incubation for 2 h at 37° C., wells are washed for six times with in assay buffer incl. 0.005% Polyoxyethylenesorbitan monolaurate (TWEEN 20), developed for 10-15 min with 20 μl 3,3′,5,5′-tetramethylbenzidine (TMB)/H2O2 substrate solution and stopped with 20 μl […]. Bound sLe^x-Tyrosine sulfate ligand complex is determined by measuring optical density at 450 nm vs. 620 nm in a Fusion alpha-FP reader (sold from Packard Bioscience, Dreieich, Germany).

Test [2] deals with T2, human E-Selectin-IgG-chimera (Homo sapiens, UniProt P16581).
T2 construct: fused on or other part: human IgG Fc part, a tag and dimerising handle that is captured by the goat anti-human Fc antibody on the plate
T2 sequence (P16581 22-175 limits assumed): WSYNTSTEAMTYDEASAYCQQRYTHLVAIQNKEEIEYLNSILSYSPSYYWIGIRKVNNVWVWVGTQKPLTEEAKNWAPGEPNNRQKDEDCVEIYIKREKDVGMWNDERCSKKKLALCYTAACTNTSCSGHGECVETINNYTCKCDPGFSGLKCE
Nature of the test: Sialyl Lewis x Tyrosine Sulfate Assay (sLex TSA), E-selectin. The conditions noted are these: for inhibition at 100 µM / E-Selectin [% Inhib.]: compound at 100 μM; for inhibition at 100 µM: read-out: E-Selectin [% Inhib.]. As for the experimental part: as §1, §2

In test [3] the target is T3, human L-Selectin-IgG-chimera (Homo sapiens, UniProt P14151).
T3 construct: fused on or other part: human IgG Fc part, a tag and dimerising handle that is captured by the goat anti-human Fc antibody on the plate
T3 sequence (P14151 39-318 limits assumed): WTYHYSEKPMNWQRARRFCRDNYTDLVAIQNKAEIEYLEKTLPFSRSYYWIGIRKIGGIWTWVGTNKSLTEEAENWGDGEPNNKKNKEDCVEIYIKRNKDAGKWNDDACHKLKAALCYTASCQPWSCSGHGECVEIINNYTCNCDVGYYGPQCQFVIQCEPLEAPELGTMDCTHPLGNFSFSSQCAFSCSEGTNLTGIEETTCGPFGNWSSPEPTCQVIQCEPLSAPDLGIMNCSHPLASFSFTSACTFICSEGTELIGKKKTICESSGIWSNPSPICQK
Nature of the test: Sialyl Lewis x Tyrosine Sulfate Assay (sLex TSA), L-selectin. Conditions: for inhibition at 100 µM / L-Selectin [% Inhib.]: compound at 100 μM; for inhibition at 100 µM: read-out: L-Selectin [% Inhib.]. On the procedure: as §1, §2

Turning to `COC(=O)Cc1cccc(-c2ccccc2NC(=O)CCc2cc(O)c(O)c(O)c2)c1` [Compound 73, {2′-[3-(3,4,5-Trihydroxy-phenyl)-propionylamino]-biphenyl-3-yl}-acetic acid methyl ester], the inhibition at 100 µM in test [1] turned out to be 84%; in test [2], 54%; in test [3] it was 88%.
`O=C(O)Cc1cccc(-c2ccccc2NC(=O)Cc2cc(O)c(O)c(O)c2)c1` [Compound 94]: the figures for the 50% inhibitory concentration (IC50) in test [1], in test [2] and in test [3] were 4.2 µM, 4.9 µM and 8.7 µM, respectively. Moreover, the figures for the inhibition at 100 µM in test [1], in test [2] and in test [3] were 78%, 79% and 76%, respectively.
As to `O=C(O)Cc1cccc(-c2ccccc2NC(=O)CCc2cc(O)c(O)c(O)c2)c1` [Compound 95], in test [1], the “P-Selectin [% Inhib.]” value is recorded as 90%. Further, in test [2], the “E-Selectin [% Inhib.]” value was determined as 89%. In addition, in test [3], the “L-Selectin [% Inhib.]” value is reported as 81%.
Regarding `O=C(Cc1cc(O)c(O)c(O)c1)Nc1cccc(C(=O)O)c1` [Compound 96], the IC50 in test [1] is 1.1 µM; in test [2], 0.8 µM; in test [3], 1.4 µM. The figures for the inhibition at 100 µM in test [1], in test [2] and in test [3] were 86%, 63% and 73%, respectively.
Consider `O=C(O)Cc1cccc(NC(=O)Cc2cc(O)c(O)c(O)c2)c1` [Compound 98], for which the IC50 in test [1] came to 2.1 µM; in test [2], 1 µM. For the same molecule, the inhibition at 100 µM in test [1] was determined as 57%; in test [2] it was 58%; in test [3], 52%.
Regarding `O=C(Cc1ccc(O)c(O)c1O)NCC1CCC(C(=O)O)CC1` (stereo not shown) [Compound 100], the “P-Selectin [% Inhib.]” value in test [1] was 40%. The “E-Selectin [% Inhib.]” value in test [2] was determined as 21%. Besides, in test [3], the “L-Selectin [% Inhib.]” value is on record as 27%.
Take `O=C(O)Cc1ccc(-c2ccccc2NC(=O)Cc2cc(O)c(O)c(O)c2)s1` [Compound 103]: in test [1], the “P-Selectin [% Inhib.]” value was found to be 87%. Besides, in test [2], the “E-Selectin [% Inhib.]” value is recorded as 68%. Further, the “L-Selectin [% Inhib.]” value in test [3] was 81%.
Turning to `O=C(Cc1cc(O)c(O)c(O)c1)NCC1CCC(C(=O)O)CC1` (stereo not shown) [Compound 104], the results for the IC50 in test [1], in test [2] and in test [3] were 2.8 µM, 3 µM and 3.3 µM, respectively. In addition, the results for the inhibition at 100 µM in test [1], in test [2] and in test [3] were 67%, 67% and 62%, respectively.
For the molecule `O=C(CCc1cc(O)c(O)c(O)c1)NCC1CCC(C(=O)O)CC1` (stereo not shown) [Compound 105], the IC50 was 3.4 µM in test [1], 3.1 µM in test [2] and 5.7 µM in test [3]. In addition, the inhibition at 100 µM in test [1] amounted to 86%; in test [2] it was 90%; in test [3], 84%.
Regarding `O=C(O)Cc1ccc(-c2ccccc2NC(=O)CCc2ccc(O)c(O)c2O)s1` [Compound 106], the “P-Selectin [% Inhib.]” value in test [1] stood at 94%. In addition, the “E-Selectin [% Inhib.]” value in test [2] is on record as 52%. In addition, in test [3], the “L-Selectin [% Inhib.]” value came out at 85%.
For `Cc1ccc(C(=O)O)cc1NC(=O)Cc1cc(O)c(O)c(O)c1` [Compound 107], in that order: 87%, 53% and 75%.
Take `Cc1ccc(C(=O)O)cc1NC(=O)CCc1cc(O)c(O)c(O)c1` [Compound 108]: the 50% inhibitory concentration (IC50) in test [1] was determined as 1.7 µM; in test [2] it was 1.3 µM; in test [3], 1.8 µM. The inhibition at 100 µM in test [1] is 86%; in test [2], 85%; in test [3] it was 84%.
`O=C(O)Cc1cccc(NC(=O)CCc2cc(O)c(O)c(O)c2)c1` [Compound 109]: the inhibition at 100 µM in test [1] worked out at 73%; in test [2] it was 82%; in test [3], 72%. The IC50 in test [2] is 2.3 µM.
For the molecule `O=C(CCc1cc(O)c(O)c(O)c1)Nc1cccc(C(=O)O)c1` [Compound 110], in test [1], the “P-Selectin [% Inhib.]” value turned out to be 96%. Also, the “E-Selectin [% Inhib.]” value in test [2] stood at 96%. For the same molecule, in test [3], the “L-Selectin [% Inhib.]” value is 92%.
On to `O=C(Cc1ccc(O)c(O)c1O)Nc1cccc(C(=O)O)c1` [Compound 111], for which the half-maximal inhibitory concentration (IC50) in test [1] came to 2.1 µM; in test [2] it was 0.6 µM; in test [3] it was 7 µM. In addition, the inhibition at 100 µM in test [1] came out at 99%; in test [2], 46%; in test [3] it was 97%.
On to `O=C(O)Cc1cccc(NC(=O)Cc2ccc(O)c(O)c2O)c1` [Compound 112], for which the half-inhibitory concentration (IC50) in test [1] is 7.4 µM; in test [3], 16 µM. Also, the inhibition at 100 µM in test [1] stood at 97%; in test [2], 38%; in test [3], 83%.
Consider `Cc1c(NC(=O)Cc2ccc(O)c(O)c2O)cccc1C(=O)O` [Compound 113], for which, in test [1], the “P-Selectin [% Inhib.]” value is recorded as 73%. Further, the “E-Selectin [% Inhib.]” value in test [2] is 42%. Further, the “L-Selectin [% Inhib.]” value in test [3] was 48%.
Taken in the same sequence, the figures for `O=C(CCc1ccc(O)c(O)c1O)Nc1cccc(C(=O)O)c1` [Compound 114] were 99%, 38% and 95%.
On to `Cc1c(NC(=O)CCc2ccc(O)c(O)c2O)cccc1C(=O)O` [Compound 115], for which the “P-Selectin [% Inhib.]” value in test [1] came to 89%. Also, the “L-Selectin [% Inhib.]” value in test [3] came out at 88%.
With `Cc1ccc(C(=O)O)cc1NC(=O)CCc1ccc(O)c(O)c1O` [Compound 116], the figures for the IC50 in test [1], in test [2] and in test [3] were 13 µM, 7.3 µM and 15 µM, respectively. Further, the inhibition at 100 µM amounted to 88% in test [1], 92% in test [2] and 87% in test [3].
With `Cc1c(NC(=O)CCc2cc(O)c(O)c(O)c2)cccc1C(=O)O` [Compound 117], the results for the half-inhibitory concentration (IC50) in test [1], in test [2] and in test [3] were 21.7 µM, 8.4 µM and 109 µM, respectively. In addition, the inhibition at 100 µM amounted to 86% in test [1], 94% in test [2] and 89% in test [3].
For the molecule `O=C(Cc1ccc(O)c(O)c1O)NCc1ccc(C(=O)O)cc1` [Compound 119], in test [1], the “P-Selectin [% Inhib.]” value is reported as 82%. Moreover, the “E-Selectin [% Inhib.]” value in test [2] was found to be 14%. Moreover, the “L-Selectin [% Inhib.]” value in test [3] is recorded as 55%.

The term IC50 denotes the concentration needed to halve the response being measured. Read a low IC50 as inhibition by little substance.
